Laboratory results as given in patent US20230312685A1, “Bi-Peptide with Affinity to Extracellular Matrix Proteins or Cells and to Growth Factors for Tissue Healing and Regeneration” (Mayo Foundation for Medical Education and Research, priority 2019, published 2023).

Target: T1, collagen type 1 of the scaffold (CMI) (Bos taurus, UniProt P02453+P02465)
T1 construct: the CMI is build out of collagen type 1 from bovine origin (FDA approved implant); from tissue; host or cells: bovine-derived collagen, in the form of the commercial collagen meniscal implant (CMI) scaffold
T1 sequence (P02453 162-1217 limits assumed): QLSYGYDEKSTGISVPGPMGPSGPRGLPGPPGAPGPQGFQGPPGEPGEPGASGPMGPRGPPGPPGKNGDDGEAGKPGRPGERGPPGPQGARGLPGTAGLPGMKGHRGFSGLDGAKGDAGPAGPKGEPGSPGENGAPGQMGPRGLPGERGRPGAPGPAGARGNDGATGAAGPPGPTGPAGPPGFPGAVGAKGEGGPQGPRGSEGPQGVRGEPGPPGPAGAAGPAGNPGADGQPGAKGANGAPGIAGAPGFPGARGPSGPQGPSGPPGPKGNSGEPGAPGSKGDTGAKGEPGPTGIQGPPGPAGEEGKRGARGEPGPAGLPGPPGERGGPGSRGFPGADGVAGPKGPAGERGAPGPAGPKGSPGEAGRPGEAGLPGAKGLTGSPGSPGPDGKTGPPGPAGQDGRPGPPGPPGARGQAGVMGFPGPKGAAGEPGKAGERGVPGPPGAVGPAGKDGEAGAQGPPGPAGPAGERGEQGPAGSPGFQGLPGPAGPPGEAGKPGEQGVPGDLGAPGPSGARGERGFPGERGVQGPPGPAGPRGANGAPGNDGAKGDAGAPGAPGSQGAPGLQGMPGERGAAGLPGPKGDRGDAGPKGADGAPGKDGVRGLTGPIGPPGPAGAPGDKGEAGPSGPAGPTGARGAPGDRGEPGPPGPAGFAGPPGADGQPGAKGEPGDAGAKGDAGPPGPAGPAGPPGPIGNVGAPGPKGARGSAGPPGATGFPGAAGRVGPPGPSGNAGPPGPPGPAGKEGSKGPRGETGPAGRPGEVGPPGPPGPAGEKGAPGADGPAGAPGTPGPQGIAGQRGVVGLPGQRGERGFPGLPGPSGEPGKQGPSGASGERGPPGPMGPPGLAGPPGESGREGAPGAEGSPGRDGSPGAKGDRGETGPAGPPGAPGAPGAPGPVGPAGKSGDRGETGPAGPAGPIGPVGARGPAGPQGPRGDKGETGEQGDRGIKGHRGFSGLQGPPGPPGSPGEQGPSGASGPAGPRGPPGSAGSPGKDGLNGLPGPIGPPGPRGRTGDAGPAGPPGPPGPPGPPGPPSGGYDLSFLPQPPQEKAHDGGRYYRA
T1 sequence (P02465 80-1117 limits assumed): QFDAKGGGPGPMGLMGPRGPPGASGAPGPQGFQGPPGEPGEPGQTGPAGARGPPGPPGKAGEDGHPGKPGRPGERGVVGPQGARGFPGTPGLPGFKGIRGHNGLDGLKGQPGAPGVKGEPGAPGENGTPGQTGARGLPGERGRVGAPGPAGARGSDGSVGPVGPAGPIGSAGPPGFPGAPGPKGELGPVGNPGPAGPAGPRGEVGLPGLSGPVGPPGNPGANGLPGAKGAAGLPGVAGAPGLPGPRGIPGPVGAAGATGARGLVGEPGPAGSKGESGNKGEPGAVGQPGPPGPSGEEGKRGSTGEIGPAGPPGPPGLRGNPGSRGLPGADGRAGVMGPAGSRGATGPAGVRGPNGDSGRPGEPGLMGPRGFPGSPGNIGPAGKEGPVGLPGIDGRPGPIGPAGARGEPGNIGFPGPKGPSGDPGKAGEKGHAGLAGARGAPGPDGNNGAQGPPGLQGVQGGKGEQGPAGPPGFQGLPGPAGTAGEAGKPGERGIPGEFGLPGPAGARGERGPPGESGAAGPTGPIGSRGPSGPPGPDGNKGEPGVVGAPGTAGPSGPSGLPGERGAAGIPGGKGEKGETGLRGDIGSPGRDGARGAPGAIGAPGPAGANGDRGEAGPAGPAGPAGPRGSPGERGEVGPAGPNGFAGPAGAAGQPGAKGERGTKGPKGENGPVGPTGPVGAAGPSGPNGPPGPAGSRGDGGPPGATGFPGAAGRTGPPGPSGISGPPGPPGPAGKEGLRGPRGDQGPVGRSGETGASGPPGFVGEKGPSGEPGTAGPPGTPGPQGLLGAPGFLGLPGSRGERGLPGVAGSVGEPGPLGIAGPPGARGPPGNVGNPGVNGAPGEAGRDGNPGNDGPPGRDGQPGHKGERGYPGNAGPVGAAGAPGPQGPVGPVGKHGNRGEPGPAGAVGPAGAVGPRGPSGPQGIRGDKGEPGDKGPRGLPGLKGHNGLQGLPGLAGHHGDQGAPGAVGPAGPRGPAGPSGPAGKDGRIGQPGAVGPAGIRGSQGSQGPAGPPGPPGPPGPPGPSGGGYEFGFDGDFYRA
Assay: Immunofluorescence (IF) assay for PDGF-BB on the collagen meniscal implant (CMI)
Assay type: binding, bovine
Experimental: Pictures are merged z-stack files from confocal microscopy.
(1) Complete assay; (2) Blank assay; (3) Assay without peptide; (4) Assay without growth factor (PDGF); (5) Assay without primary antibody. Note: PDGF appears to bind well to collagen type 1 of the scaffold even without pre-incubation of the bi-peptide structure. Therefore the heparin-binding domain part of the peptide for PDGF can't be evaluated according to this assay.
FIG. 10 is an image of a Tile confocal scan of the CMI in the IF assay for PDGF-BB. The complete surface of the CMI was able to bind with recombinant PDGF.

Q: For PDGF, which “binding of PDGF to collagen type 1 of the scaffold” value (IF assay on CMI, without pre-incubation of the bi-peptide structure) is on record?
A: The value was “bind well”.

Q: And the “binding of recombinant PDGF to the CMI surface” value (tile confocal scan of the CMI, complete surface)?
A: Its value is “able to bind”.
